Measurements reported in PMC7252619 (PLoS ONE, 2020).
Read-outs that look alike come from different tables or passages of the source.

Molecular target: T1, MAP2K2 (Homo sapiens, UniProt P36507)
T1 construct: purchased ReactionBiology
Experiment: Kinase activity test (ReactionBiology), % enzyme activity relative to DMSO
Type: biochemical
Conditions: MEK2

[1] = Average, read-out: % Enzyme Activity (relative to DMSO controls), Average
[2] = replicate Data 1, read-out: % Enzyme Activity (relative to DMSO controls), Data 1
[3] = replicate Data 2, read-out: % Enzyme Activity (relative to DMSO controls), Data 2

T1 sequence (P36507 whole entry): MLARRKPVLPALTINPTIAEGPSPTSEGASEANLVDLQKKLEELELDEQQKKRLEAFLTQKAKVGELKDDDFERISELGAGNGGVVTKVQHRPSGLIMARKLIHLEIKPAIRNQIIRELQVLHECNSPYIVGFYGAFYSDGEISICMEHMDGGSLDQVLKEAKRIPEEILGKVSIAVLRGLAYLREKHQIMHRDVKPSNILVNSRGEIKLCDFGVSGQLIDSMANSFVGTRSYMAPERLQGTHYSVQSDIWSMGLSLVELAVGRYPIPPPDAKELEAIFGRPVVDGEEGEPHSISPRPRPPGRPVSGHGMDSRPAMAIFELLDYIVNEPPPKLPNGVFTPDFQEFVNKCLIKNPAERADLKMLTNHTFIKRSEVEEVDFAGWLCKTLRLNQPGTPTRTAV

SMILES: Nc1ncnc2c1ncn2[C@@H]1O[C@H](CO)[C@@H](O)[C@H]1O [Adenosine, reference compound]
- remaining activity at 1 µM [1]: 96.1%
- remaining activity at 1 µM [2]: 96.6%
- remaining activity at 1 µM [3]: 95.7%
- remaining activity at 10 µM [1]: 59%
- remaining activity at 10 µM [2]: 60.6%
- remaining activity at 10 µM [3]: 57.4%
